Series [1] has as its system non-malignant human lung fibroblasts (HLF). Kind of series: MTT cytotoxicity assay, HLF. As to conditions: Fibroblast, read-out: IC50 HLF. A general note: Tetrazolium dyes change colour on reduction, which living cells bring about.
Procedure: (§1) In addition, to assess the amount of prodrug activation in these models, the cytotoxicity of the activated drugs after (cell-free) pre-incubation with H2O2 was tested for comparison.
(§2) All samples were dissolved in DMSO and diluted to the indicated concentrations (final concentrations of DMSO were below 1%). […] Viability was measured using 3-(4,5-dimethylthiazol-2-yl)-2,5-diphenyltetrazolium bromide (MTT) based vitality assay (EZ4U; Biomedica, Vienna, Austria) following the manufacturer’s recommendations.
Series [2] has as its system RUMH (c-MET-overexpressing renal cell carcinoma). Kind of series: MTT cytotoxicity assay, RUMH. As to conditions: for IC50: Homo sapiens, read-out: IC50 RUMH; for Ratio of IC50 ±H2O2, RUMH: IC50 without / with H2O2 pre-incubation.
Procedure: as §1, §2
Series [3] has as its system H1993 (c-MET-dependent non-small cell lung cancer). Kind of series: MTT cytotoxicity assay, H1993. As to conditions: for IC50: Homo sapiens, NCI-H1993, read-out: IC50 H1993; for Ratio of IC50 ±H2O2, H1993: IC50 without / with H2O2 pre-incubation.
Procedure: as §1, §2
In series [4] the test system is H2228 (ALK-dependent non-small cell lung cancer). Kind of series: MTT cytotoxicity assay, H2228. As to conditions: for IC50: Homo sapiens, NCI-H2228, read-out: IC50 H2228; for Ratio of IC50 ±H2O2, H2228: IC50 without / with H2O2 pre-incubation.
Procedure: as §1, §2
A short description of series [5]: H2O2 activation assay (HPLC). As to conditions: for Release of free crizotinib / Product of activation with H2O2: ten equivalents H2O2, phosphate buffer 50 mM pH 7.4, 37 °C; for Product of activation with H2O2: 1 h, HPLC-MS. As for the experimental part:
Therefore, the activation process was verified by incubation with ten equivalents of H2O2 in phosphate buffer (50 mM, pH 7.4) at 37 °C. […] In a complex biological environment, this quinone methide usually reacts with other nucleophiles; consequently, this side reaction can be neglected.
Additionally, a H2O2 solution (1 mM) in PB7.4 was prepared. The activation was started by addition of 5 µL of drug solution and 25 µL of H2O2 to 70 µL of PB7.4 and incubated at 37 °C for 1 h. At time point 0 and every 8 min, the sample were measured via HPLC. All measurements were performed on a ThermoFisher Ultimate 3000RS system using a Water’s Acquity BEH C18 column (3 × 50 mm, 1.7 µm) and a 5%–95% gradient of acetonitrile (+0.1% TFA) in water (+0.1% TFA). […] The results are visualized in Figure S6 for prodrug A and in Figure S7 for prodrug B.

The next series addresses ALK (Homo sapiens, UniProt Q9UM73). Kind of series: Cell-free kinase inhibition assay (SelectScreen, Z'-LYTE), ALK. As to conditions: for Prodrug factor ALK = IC50 (prodrug)/IC50 (crizotinib): cell-free kinase assay.
Another series deals with c-MET (Homo sapiens, UniProt P08581). Kind of series: Cell-free kinase inhibition assay (SelectScreen, Z'-LYTE), c-MET. As to conditions: for Prodrug factor c-MET = IC50 (prodrug)/IC50 (crizotinib): cell-free kinase assay.
Chain of c-MET (P08581 25-1390): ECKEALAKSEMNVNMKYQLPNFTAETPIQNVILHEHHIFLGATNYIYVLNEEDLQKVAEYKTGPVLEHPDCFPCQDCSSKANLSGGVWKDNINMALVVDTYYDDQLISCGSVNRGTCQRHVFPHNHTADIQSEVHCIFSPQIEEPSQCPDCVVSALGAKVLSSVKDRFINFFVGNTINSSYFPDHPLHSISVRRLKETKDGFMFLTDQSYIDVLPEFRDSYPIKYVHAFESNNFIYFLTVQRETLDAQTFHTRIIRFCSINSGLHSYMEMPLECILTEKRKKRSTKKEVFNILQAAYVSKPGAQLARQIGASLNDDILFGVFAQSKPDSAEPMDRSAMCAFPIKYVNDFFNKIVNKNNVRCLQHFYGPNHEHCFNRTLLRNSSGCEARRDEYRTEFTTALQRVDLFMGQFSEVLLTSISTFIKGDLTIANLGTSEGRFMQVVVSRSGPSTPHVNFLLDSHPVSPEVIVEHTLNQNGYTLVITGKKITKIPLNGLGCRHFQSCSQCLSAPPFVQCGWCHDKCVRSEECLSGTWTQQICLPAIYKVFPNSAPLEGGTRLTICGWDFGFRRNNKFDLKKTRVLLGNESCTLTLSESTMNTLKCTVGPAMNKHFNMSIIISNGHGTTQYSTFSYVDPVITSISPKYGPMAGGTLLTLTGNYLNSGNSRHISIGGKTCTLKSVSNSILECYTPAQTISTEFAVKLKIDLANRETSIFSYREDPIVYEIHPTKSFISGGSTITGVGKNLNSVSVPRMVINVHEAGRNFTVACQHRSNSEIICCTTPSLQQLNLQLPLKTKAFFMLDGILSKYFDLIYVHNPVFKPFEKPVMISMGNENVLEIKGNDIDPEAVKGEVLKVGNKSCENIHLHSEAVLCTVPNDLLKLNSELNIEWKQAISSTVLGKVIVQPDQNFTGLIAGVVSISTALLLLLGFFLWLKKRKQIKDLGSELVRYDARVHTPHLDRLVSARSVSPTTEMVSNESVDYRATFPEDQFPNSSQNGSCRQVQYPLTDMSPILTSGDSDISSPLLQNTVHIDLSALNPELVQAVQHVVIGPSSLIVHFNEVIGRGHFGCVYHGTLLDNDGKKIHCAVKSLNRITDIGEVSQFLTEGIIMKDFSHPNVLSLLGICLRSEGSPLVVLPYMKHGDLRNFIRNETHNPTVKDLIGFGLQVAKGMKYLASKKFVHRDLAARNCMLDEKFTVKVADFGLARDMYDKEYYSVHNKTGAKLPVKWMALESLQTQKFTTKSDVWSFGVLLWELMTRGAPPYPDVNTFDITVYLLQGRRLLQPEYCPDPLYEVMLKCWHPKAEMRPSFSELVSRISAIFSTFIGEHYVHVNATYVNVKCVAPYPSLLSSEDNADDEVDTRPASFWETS
The nature of series [6]: Stability in R10 medium and fetal calf serum (HPLC-MS). As to conditions: R10 medium and pure FCS, 37 °C, after 72 h.
Procedure: After precipitation of the macromolecules with acetonitrile, the supernatant was investigated via HPLC-MS measurements (Figure 4).
The 10 mM stock solutions of the drugs were prepared in DMSO and diluted 1:10 with PB7.4. […] At different time points, macromolecules were precipitated by addition of 40 µL of acetonitrile, vortexed and centrifuged for 10 min at 6000 rpm. The supernatant was extracted and investigated via HPLC-MS measurements.
On the set-up of series [7]: method as in PMID 28256516. As to conditions: approved orally applied drug, SwissADME prediction; cited from earlier work.

Chain of ALK (Q9UM73 19-1620): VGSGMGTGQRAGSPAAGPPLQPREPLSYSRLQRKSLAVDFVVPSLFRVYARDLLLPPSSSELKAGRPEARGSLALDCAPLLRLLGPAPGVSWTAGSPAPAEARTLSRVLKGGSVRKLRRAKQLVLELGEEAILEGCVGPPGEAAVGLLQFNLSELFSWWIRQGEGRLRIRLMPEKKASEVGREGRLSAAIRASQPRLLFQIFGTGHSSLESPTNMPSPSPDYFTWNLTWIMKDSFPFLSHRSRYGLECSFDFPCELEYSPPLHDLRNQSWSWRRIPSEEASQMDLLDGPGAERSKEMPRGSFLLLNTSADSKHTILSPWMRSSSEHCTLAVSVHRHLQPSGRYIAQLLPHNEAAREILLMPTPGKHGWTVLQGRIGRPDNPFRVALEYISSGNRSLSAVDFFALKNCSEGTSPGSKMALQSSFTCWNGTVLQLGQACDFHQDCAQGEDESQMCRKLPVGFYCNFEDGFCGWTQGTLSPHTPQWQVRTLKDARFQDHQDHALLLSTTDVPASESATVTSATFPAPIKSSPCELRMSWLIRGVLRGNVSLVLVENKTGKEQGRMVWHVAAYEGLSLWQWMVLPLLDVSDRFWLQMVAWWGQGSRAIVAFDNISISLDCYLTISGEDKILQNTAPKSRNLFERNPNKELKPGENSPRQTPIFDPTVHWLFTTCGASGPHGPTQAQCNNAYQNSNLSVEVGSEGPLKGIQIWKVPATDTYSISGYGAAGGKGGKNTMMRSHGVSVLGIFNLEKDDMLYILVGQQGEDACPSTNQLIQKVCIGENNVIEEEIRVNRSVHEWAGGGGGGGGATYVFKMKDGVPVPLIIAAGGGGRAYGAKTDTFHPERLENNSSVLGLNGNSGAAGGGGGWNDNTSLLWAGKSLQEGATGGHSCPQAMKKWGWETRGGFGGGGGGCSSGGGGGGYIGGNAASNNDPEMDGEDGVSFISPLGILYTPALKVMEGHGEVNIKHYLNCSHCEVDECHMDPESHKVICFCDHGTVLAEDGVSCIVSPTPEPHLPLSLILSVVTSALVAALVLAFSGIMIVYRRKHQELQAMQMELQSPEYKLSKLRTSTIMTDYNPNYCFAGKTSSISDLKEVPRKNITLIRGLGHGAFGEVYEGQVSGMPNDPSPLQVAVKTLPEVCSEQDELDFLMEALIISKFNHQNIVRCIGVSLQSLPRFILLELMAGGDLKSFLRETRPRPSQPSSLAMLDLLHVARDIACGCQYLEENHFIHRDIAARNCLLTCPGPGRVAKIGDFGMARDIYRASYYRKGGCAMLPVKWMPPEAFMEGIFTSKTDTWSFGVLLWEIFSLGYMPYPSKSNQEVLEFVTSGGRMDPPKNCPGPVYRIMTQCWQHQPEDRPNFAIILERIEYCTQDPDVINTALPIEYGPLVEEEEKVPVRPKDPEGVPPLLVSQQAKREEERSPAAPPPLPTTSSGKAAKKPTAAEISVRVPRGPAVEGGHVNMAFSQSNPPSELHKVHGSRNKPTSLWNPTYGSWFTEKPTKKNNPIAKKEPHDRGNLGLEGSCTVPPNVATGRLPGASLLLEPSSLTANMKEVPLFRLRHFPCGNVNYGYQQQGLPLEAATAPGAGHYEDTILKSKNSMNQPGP

What is called IC50 is the midpoint of a concentration-inhibition curve. On to `C[C@@H](Oc1cc(-c2cnn(C3CCNCC3)c2)cnc1NCc1ccc(O)cc1)c1c(Cl)ccc(F)c1Cl` [Compound C, (R)-4-(((3-(1-(2,6-Dichloro-3-fluorophenyl)ethoxy)-5-(1-(piperidin-4-yl)-1H-pyrazol-4-yl)pyridin-2-yl)amino)methyl)phenol], for which the IC50 in [1] worked out at 4.03 ± 0.04 µM; in [2] it was 5.94 ± 1.09 µM; in series [3] it was 9.96 ± 2.69 µM; in [4] it was 7.23 ± 0.28 µM.
On to `C[C@@H](Oc1cc(-c2cnn(C3CCNCC3)c2)cnc1N)c1c(Cl)ccc(F)c1Cl` [Crizotinib, reference compound], for which the IC50 worked out at 6.32 ± 0.39 µM in [1], 6.08 ± 1.51 µM in [2] and 3.18 ± 0.26 µM in series [3].
`C[C@@H](Oc1cc(-c2cnn(C3CCNCC3)c2)cnc1NC(=O)OCc1ccc(B(O)O)cc1)c1c(Cl)ccc(F)c1Cl` [Prodrug A, (R)-(4-((((3-(1-(2,6-Dichloro-3-fluorophenyl)ethoxy)-5-(1-(piperidin-4-yl)-1H-pyrazol-4-yl)pyridin-2-yl)carbamoyl)oxy)methyl)phenyl)boronic acid]: the “Time to activation on incubation with H2O2” value in series [5] (incubation with H2O2) is at most 1 h. Besides, the “Release of free crizotinib” value in [5] (after 10 min) is on record as ~ 50%; in series [5] (after 1 h), ~ 75%. Also, the IC50 is 16.8 ± 1.38 µM in [1]; 14 ± 3.92 µM in series [2]; 9.73 ± 2.63 µM in series [3]; 23.1 ± 0.47 µM in series [4]; 472 nM on ALK; 55 nM at c-MET. The “Ratio of IC50 ±H2O2, RUMH” value in series [2] came out at 1.57. Besides, the “Ratio of IC50 ±H2O2, H1993” value in series [3] was determined as 1.22. Moreover, in series [4], the “Ratio of IC50 ±H2O2, H2228” value is 1.62. Moreover, the “Prodrug factor ALK = IC50 (prodrug)/IC50 (crizotinib)” value at ALK is on record as 22. Also, on c-MET, the “Prodrug factor c-MET = IC50 (prodrug)/IC50 (crizotinib)” value stood at 11.
In the case of `C[C@@H](Oc1cc(-c2cnn(C3CCNCC3)c2)cnc1NCc1ccc(B(O)O)cc1)c1c(Cl)ccc(F)c1Cl` [Prodrug B, (R)-(4-(((3-(1-(2,6-Dichloro-3-fluorophenyl)ethoxy)-5-(1-(piperidin-4-yl)-1H-pyrazol-4-yl)pyridin-2-yl)amino)methyl)phenyl)boronic acid], the “Product of activation with H2O2” value in series [5] was “formation of a hydrolyzed but stable phenol derivative, compound C”; in [5] (listed as prodrug B) it was “formation of compound C rather than the release of crizotinib”. In addition, the concentration for half-maximal inhibition (IC50) was found to be 8.99 ± 0.36 µM in series [1]; 5.05 ± 0.44 µM in [2]; 10.2 ± 1.68 µM in series [3]; 8.3 ± 0.42 µM in series [4]; 333 nM on ALK; 684 nM against c-MET. Besides, in series [2], the “Ratio of IC50 ±H2O2, RUMH” value stood at 0.91. Further, the “Ratio of IC50 ±H2O2, H1993” value in [3] stood at 0.87. Moreover, the “Ratio of IC50 ±H2O2, H2228” value in series [4] is recorded as 0.92. In addition, the Prodrug still intact in series [6] was 30–40%. In addition, the “Prodrug factor ALK = IC50 (prodrug)/IC50 (crizotinib)” value at ALK worked out at 16. In addition, on c-MET, the “Prodrug factor c-MET = IC50 (prodrug)/IC50 (crizotinib)” value is on record as 137.
For the compound `CS(=O)(=O)CCNCc1ccc(-c2ccc3ncnc(Nc4ccc(OCc5cccc(F)c5)c(Cl)c4)c3c2)o1` [lapatinib], the “GI absorption (predicted)” value in series [7] was “low”.

These data come from paper PMC7179202 (Molecules, 2020).
